In ChEMBL document CHEMBL4339236, “Colletopeptides A-D, Anti-inflammatory Cyclic Tridepsipeptides from the Plant Endophytic Fungus Colletotrichum sp. S8” (J Nat Prod, 2019):
Active and inactive are the calls of the source. No cut-off for these calls is given here.

Columns and labels:
RAW264.7 [1] = test: Antiinflammatory activity in mouse RAW264.7 cells assessed as inhibition of LPS-induced nitric oxide production preincubated for 12 hrs followed by LPS-stimulation and measured after 24 hrs by Griess assay; format: functional, cell-based
[2] = biological target: T1, NF-kappa-B inhibitor alpha (Mus musculus) (UniProt Q9Z1E3); test: Inhibition of IkappaBalpha phosphorylation in LPS-stimulated mouse RAW264.7 cells at 20 to 40 uM preincubated for 12 hrs followed by LPS stimulation and measured after 24 hrs by Western blot analysis; format: cell-based
T1 sequence (whole entry): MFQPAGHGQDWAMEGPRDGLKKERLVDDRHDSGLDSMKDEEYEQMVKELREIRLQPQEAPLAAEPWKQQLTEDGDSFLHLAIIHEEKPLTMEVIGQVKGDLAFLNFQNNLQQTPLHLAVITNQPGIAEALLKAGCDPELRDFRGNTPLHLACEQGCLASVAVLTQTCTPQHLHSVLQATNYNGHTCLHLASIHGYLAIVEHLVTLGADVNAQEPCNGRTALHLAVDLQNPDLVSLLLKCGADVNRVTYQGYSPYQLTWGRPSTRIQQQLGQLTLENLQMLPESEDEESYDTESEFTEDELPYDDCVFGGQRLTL

[3] = biological target: Transcription factor p65 (Mus musculus) (UniProt Q04207); test: Inhibition of NFkappaB p65 phosphorylation in LPS-stimulated mouse RAW264.7 cells at 20 to 40 uM preincubated for 12 hrs followed by LPS stimulation and measured after 24 hrs by Western blot analysis; format: cell-based
Sequence of Transcription factor p65 (Mus musculus) (Q04207 whole entry): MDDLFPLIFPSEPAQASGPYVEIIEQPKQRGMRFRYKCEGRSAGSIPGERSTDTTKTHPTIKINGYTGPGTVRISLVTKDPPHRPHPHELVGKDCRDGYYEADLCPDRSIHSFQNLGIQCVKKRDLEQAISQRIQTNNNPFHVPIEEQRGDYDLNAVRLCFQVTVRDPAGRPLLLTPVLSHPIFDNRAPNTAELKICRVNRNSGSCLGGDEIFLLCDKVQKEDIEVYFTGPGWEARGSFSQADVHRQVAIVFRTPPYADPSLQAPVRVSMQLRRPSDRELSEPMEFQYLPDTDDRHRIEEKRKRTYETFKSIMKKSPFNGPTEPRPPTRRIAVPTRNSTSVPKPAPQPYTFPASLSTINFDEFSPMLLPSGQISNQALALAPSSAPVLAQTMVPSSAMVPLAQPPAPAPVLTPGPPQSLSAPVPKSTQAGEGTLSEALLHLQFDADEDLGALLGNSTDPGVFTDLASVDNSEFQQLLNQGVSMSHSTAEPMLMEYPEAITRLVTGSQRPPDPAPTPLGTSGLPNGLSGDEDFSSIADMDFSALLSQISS

HCT-116 = test: Cytotoxicity against human HCT116 cells measured after 48 hrs by MTS assay; format: cell-based; details: hct-116, 48 h
A549 = test: Cytotoxicity against human A549 cells measured after 48 hrs by MTS assay; format: cell-based; details: a549, 48 h
MDA-MB-231 = test: Cytotoxicity against human MDA-MB-231 cells measured after 48 hrs by MTS assay; format: cell-based; details: mda-mb-231, 48 h
HepG2 [4] = test: Cytotoxicity against human HepG2 cells measured after 48 hrs by MTS assay; format: cell-based; details: hepg2, 48 h
HeLa = test: Cytotoxicity against human HeLa cells measured after 48 hrs by MTS assay; format: cell-based
Escherichia coli = test: Antibacterial activity against Colon bacillus measured after 24 hrs by broth microdilution assay; format: functional, organism-based
Staphylococcus aureus = test: Antibacterial activity against Staphylococcus aureus measured after 24 hrs by broth microdilution assay; format: functional, organism-based
Bacillus subtilis = test: Antibacterial activity against Bacillus subtilis measured after 24 hrs by broth microdilution assay; format: functional, organism-based
Aeromonas hydrophila = test: Antibacterial activity against Aeromonas hydrophila measured after 24 hrs by broth microdilution assay; format: functional, organism-based
HepG2 [5] = test: Lipid lowering activity in human HepG2 cells assessed as reduction in oleic acid-induced lipid accumulation after 24 hrs by oil red O staining based spectrophotometric method; format: functional, cell-based
[6] = biological target: Histone deacetylase (Homo sapiens) (UniProt Q13547+O15379+Q9UBN7+Q92769+Q9UQL6+Q8WUI4+Q9BY41+Q96DB2+P56524+Q9UKV0+Q969S8); test: Inhibition of HDAC in human HeLa nuclear extracts using Boc-Lys(Ac)-AMC as substrate by fluorescence assay; format: cell-free
RAW264.7 [7] = test: Antiinflammatory activity in mouse RAW264.7 cells assessed as inhibition of LPS-induced IL-6 production preincubated for 12 hrs followed by LPS-stimulation and measured after 24 hrs by ELISA; format: functional, cell-based
RAW264.7 [8] = test: Antiinflammatory activity in mouse RAW264.7 cells assessed as inhibition of LPS-induced TNFalpha production preincubated for 12 hrs followed by LPS-stimulation and measured after 24 hrs by ELISA; format: functional, cell-based

`CC(C)[C@H]1C(=O)O[C@H]([C@@H](C)CCCC[C@@H](C)O)C[C@@H](O)[C@@H](C)C(=O)N[C@H](Cc2ccccc2)C(=O)N1C` was tested, and the IC50 (RAW264.7 [1]) was 13.5 µM, the inhibition [2] was “Active” and the inhibition [3] was “Active”. The Activity (HCT-116) was “Non-Toxic”, the Activity (A549) was “Non-Toxic” and the Activity (MDA-MB-231) was “Non-Toxic”. For the same compound, the Activity (HepG2 [4]) was “Non-Toxic”, the Activity (HeLa) was “Non-Toxic” and the Activity (Escherichia coli) was “inactive”. The Activity (Staphylococcus aureus) was “inactive”, the Activity (Bacillus subtilis) was “inactive” and the Activity (Aeromonas hydrophila) was “inactive”. For the same compound, the Activity (HepG2 [5]) was “Active” and the inhibition [6] was “inactive”.

For `CC(C)C[C@H]1C(=O)O[C@H]([C@@H](C)CCCC[C@@H](C)O)C[C@@H](O)[C@@H](C)C(=O)N[C@H](Cc2ccccc2)C(=O)N1C`, the IC50 (RAW264.7 [1]) was 38.7 µM, the Activity (HCT-116) was “Non-Toxic” and the Activity (A549) was “Non-Toxic”. The Activity (MDA-MB-231) was “Non-Toxic”, the Activity (HepG2 [4]) was “Non-Toxic” and the Activity (HeLa) was “Non-Toxic”. For the same compound, the Activity (Escherichia coli) was “inactive”, the Activity (Staphylococcus aureus) was “inactive” and the Activity (Bacillus subtilis) was “inactive”. For the same compound, the Activity (Aeromonas hydrophila) was “inactive”, the Activity (HepG2 [5]) was “Active” and the inhibition [6] was “inactive”.

With `CC[C@H](C)[C@H]1C(=O)O[C@H]([C@@H](C)CCCC[C@@H](C)O)C[C@@H](O)[C@@H](C)C(=O)N[C@H](Cc2ccccc2)C(=O)N1C` the IC50 (RAW264.7 [1]) was 8.3 µM, the inhibition (RAW264.7 [7]) was “Dose-dependent effect” and the inhibition (RAW264.7 [8]) was “Dose-dependent effect”. The inhibition [2] was “Active”, the inhibition [3] was “Active” and the Activity (HCT-116) was “Non-Toxic”. The Activity (A549) was “Non-Toxic”, the Activity (MDA-MB-231) was “Non-Toxic” and the Activity (HepG2 [4]) was “Non-Toxic”. The Activity (HeLa) was “Non-Toxic”, the Activity (Escherichia coli) was “inactive” and the Activity (Staphylococcus aureus) was “inactive”. The Activity (Bacillus subtilis) was “inactive”, the Activity (Aeromonas hydrophila) was “inactive” and the Activity (HepG2 [5]) was “Active”. For the same compound, the inhibition [6] was “inactive”.

`C[C@@H]1C[C@H]2[C@@H]3CCC4=CC(=O)C=C[C@]4(C)[C@@]3(F)[C@@H](O)C[C@]2(C)[C@@]1(O)C(=O)CO` [DEXAMETHASONE] gave an IC50 (RAW264.7 [1]) of 18.4 µM.

`CC[C@H](C)[C@H]1C(=O)O[C@@H](CCCCC[C@@H](C)O)C[C@@H](O)[C@@H](C)C(=O)N[C@H](Cc2ccccc2)C(=O)N1C` was tested, and the IC50 (RAW264.7 [1]) was 22.2 µM, the Activity (HCT-116) was “Non-Toxic” and the Activity (A549) was “Non-Toxic”. The Activity (MDA-MB-231) was “Non-Toxic”, the Activity (HepG2 [4]) was “Non-Toxic” and the Activity (HeLa) was “Non-Toxic”. For the same compound, the Activity (Escherichia coli) was “inactive”, the Activity (Staphylococcus aureus) was “inactive” and the Activity (Bacillus subtilis) was “inactive”. For the same compound, the Activity (Aeromonas hydrophila) was “inactive”, the Activity (HepG2 [5]) was “Active” and the inhibition [6] was “inactive”.
